For assay [1], the system named is A. xylosoxidans butanol dehydrogenase. Nature of the assay: Kinetic characterization of butanol dehydrogenase, reduction of ketone or aldehyde substrates. The class given is biochemical, Achromobacter xylosoxidans. As to conditions: 35° C., 50 mM MES pH 6.0, 200 μM NADH. An excerpt: The secondary alcohol dehydrogenase (sadB) from Achromobacter xylosoxidans was cloned into the vector pTrc99a (Amann et al., Gene 69(2):301-315 (1988)). The coding region (SEQ ID NO: 1) was amplified using standard conditions from A. xylosoxidans genomic DNA, prepared using a Gentra Puregene kit (Gentra Systems, Inc., Minneapolis, Minn.; catalog number D-5500A) following the recommended protocol for gram negative organisms using forward and reverse primers N473 and N469 (SEQ ID NOs: 24 and 23). The PCR product was TOPO-Blunt cloned into pCR4 BLUNT (Invitrogen) to produce pCR4Blunt::sadB, which was used to transform E. coli Mach-1 cells. Plasmid DNA was subsequently isolated from four clones, and the sequence verified. The plasmid was then digested with EcoRI, releasing the sadB fragment, which was ligated with EcoRI-digested pTrc99a to generate pTrc99a::sadB. The E. coli Mach 1 cells were transformed with the plasmid and the resulting transformant was named Mach1/pTrc99a::sadB.

Assay [2] has the same test system. As to conditions: alcohol substrate (oxidation); 35° C., TRIS buffer pH 8.5, 3 mM NAD+; crude enzyme from A. xylosoxidans. On the procedure: Reactions with alcohol substrates were performed at 35° C. in TRIS buffer, pH 8.5, containing 3 mM NAD^+ and varying concentrations of alcohol. Reactions with ketone or aldehyde substrates were performed at 35° C. with 50 mM MES buffer, pH 6.0, 200 μM NADH and varying concentrations of the ketone or aldehyde. Crude enzyme preparations were used, obtained either from A. xylosoxidans or recombinant E. coli strain Mach1/pTrc99a::sadB (described in Example 3 below).

Assay [3] relates to butanol dehydrogenase from A. xylosoxidans. Description: Activity stain on non-denaturing polyacrylamide gel (MTT/PMS coupled). The format is biochemical, Achromobacter xylosoxidans. As to conditions: NAD+, MTT, PMS. From the text:
The purified enzyme and molecular weight standards were subjected to electrophoresis using non-denaturing polyacrylamide gels (8-16% Tris-Glycine gradient gel, Invitrogen). After electrophoresis, the gels were removed and stained for protein (Simply Blue Protein Stain, Invitrogen) or stained for activity by coupling the conversion of 1-butanol plus NAD^+ to butyraldehyde plus NADH with the conversion of 3 [4,5-dimethylthiazol-2-yl]-2,5-diphenyltetrazolium bromide (MTT) to a deeply colored formazan, using phenazine methosulfate (PMS) as mediator (Tang et al., J. Bacteriol. 140, 182 (1997)). The activity solution contained 0.5 mg PMS, 5 mg MTT, 20 mg NAD^+ and 1 mL of 1-butanol in a total volume of 25 mL.

Where [4] appears, read: ketone or aldehyde substrate (reduction), crude enzyme from A. xylosoxidans.
Setting [5] is: aldehyde substrate (reduction), crude enzyme from E. coli strain Mach1/pTrc99a.

Read-outs that look alike come from different tables or passages of the source.

`CCC(C)=O` [2-Butanone]: in assay [1] (setting [4]), the Km (usually the concentration of substrate that gives half-maximal velocity) turned out to be 500 µM and the Vmax (commonly the top rate of the reaction or transport when substrate is in excess) was determined as 0.35 µmol/min.
Regarding `CC(C)C=O` [Isobutyraldehyde], in assay [1] (setting [5]), the Km is 1900 µM and the maximum rate (Vmax) is 1.1 µmol/min.
Regarding `CCC(C)O` (stereo not drawn) [2-Butanol], in assay [2], the Km worked out at 300 µM and the Vmax came to 0.22 µmol/min. Also, the “activity staining of the enzyme band with the alcohol as substrate” value in assay [3] is listed as “active”.
Regarding `CC(C)CO` [isobutanol], the “activity staining of the enzyme band with the alcohol as substrate” value in assay [3] is “active”.
As to 1-Butanol, in assay [2], the Km amounted to 4600 µM and the Vmax was determined as 0.02 µmol/min.
`CCCC=O` [Butyraldehyde]: in assay [1] (setting [4]), the Km was 7300 µM and the Vmax was 0.67 µmol/min.
